{"source": "patent US7875587B2", "about": "“Peptide analogues of GIP for treatment of diabetes, insulin resistance and obesity” (UUTECH Limited, priority 2004, dated 2011)", "key": {"[1]": {"target": "T1, DPP IV (Sus scrofa, UniProt P22411)", "T1 construct": "purchased Sigma (Poole, Dorset, UK)", "T1 sequence (P22411 whole entry)": "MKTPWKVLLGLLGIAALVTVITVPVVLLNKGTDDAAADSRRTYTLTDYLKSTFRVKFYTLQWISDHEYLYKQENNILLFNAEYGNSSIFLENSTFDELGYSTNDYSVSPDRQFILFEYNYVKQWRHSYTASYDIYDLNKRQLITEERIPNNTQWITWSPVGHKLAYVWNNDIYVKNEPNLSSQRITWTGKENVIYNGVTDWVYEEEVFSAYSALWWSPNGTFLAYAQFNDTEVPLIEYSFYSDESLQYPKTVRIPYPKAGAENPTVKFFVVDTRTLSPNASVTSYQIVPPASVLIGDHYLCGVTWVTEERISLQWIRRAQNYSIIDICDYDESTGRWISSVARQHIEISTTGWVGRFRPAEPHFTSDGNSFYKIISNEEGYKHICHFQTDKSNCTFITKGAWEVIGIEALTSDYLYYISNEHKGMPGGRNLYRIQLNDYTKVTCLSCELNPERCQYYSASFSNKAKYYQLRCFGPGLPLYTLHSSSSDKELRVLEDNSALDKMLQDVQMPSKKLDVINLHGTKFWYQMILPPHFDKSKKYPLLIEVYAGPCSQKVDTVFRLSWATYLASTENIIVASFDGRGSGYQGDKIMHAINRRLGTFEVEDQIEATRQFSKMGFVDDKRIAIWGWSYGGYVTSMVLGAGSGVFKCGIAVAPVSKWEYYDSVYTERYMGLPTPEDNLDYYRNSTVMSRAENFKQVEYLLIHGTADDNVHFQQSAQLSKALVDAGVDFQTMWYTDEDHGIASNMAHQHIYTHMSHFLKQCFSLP", "experiment": "DPP IV degradation studies of fatty acid derivatised GIP analogues", "type": "in vitro ADME, porcine", "settings": "pig, isolated enzyme dpp iv, pH 7.8, incubation with DPP IV, read-out: % Intact peptide remaining after time (hours)", "experimental": "(§1) DPP IV degradation studies. GIP and fatty acid derivatised GIP analogues were incubated at 37° C. with purified porcine dipeptidylpeptidase IV (5 mU in 50 mmol/l triethanolamine-HCl; pH 7.8) for 0, 2, 4, 8 and 24 hours (final peptide concentration 2 mmol/l). The reactions were subsequently terminated by addition of 10% (v/v) TFA/water and the reaction products separated using HPLC. […] HPLC peak area data were used to calculate % intact peptide remaining throughout the incubation."}, "[2]": {"target": "T2, purified porcine dipeptidylpeptidase IV (Sus scrofa, UniProt P22411)", "T2 construct": "purchased Sigma (Poole, Dorset, UK)", "T2 sequence (P22411 whole entry)": "as above", "experiment": "DPP IV degradation studies of fatty acid derivatised GIP analogues", "type": "in vitro ADME", "settings": "incubation with DPP IV", "experimental": "as §1"}, "[3]": {"target": "T3, human GIP receptor (Homo sapiens, UniProt P48546)", "T3 construct": "expressed in transfected cells; host or cells: Chinese hamster lung (CHL) fibroblasts, stably transfected", "T3 sequence (P48546 22-466)": "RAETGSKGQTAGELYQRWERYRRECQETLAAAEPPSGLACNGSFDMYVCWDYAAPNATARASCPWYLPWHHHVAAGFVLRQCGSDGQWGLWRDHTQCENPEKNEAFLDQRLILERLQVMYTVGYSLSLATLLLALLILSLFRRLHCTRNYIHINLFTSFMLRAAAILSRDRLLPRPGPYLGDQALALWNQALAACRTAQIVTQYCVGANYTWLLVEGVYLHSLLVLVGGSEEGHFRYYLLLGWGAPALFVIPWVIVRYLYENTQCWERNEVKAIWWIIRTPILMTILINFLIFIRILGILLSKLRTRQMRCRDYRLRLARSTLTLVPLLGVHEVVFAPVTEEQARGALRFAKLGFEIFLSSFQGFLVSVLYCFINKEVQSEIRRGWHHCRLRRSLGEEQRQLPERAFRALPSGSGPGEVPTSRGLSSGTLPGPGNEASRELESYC", "experiment": "Intracellular cyclic AMP production in GIP-receptor transfected CHL fibroblasts", "type": "cell-based", "experimental": "In vitro biological activity. […] In brief, CHL cells were seeded into 12-well plates (Nünc, Roskilde, Denmark) at a density of 10^5 cells per well and allowed to grow for 48 hours before being loaded with tritiated adenine (2 μCi; TRK311; Amersham, Buckinghamshire, UK). The cells were then incubated at 37° C. for 6 hours in 1 ml DMEM supplemented with 0.5% (w/v) BSA and subsequently washed twice with HBS buffer (pH 7.4). […] The medium was subsequently removed and the cells lysed with 1 ml of 5% TCA containing 0.1 mmol/l unlabelled cyclic AMP and 0.1 mmol/l unlabelled ATP."}, "[4]": {"tested_on": "BRIN-BD11 cells", "experiment": "Insulin release from clonal pancreatic BRIN-BD11 cells (Example 6)", "type": "cell-based", "settings": "5.6 mmol/l glucose, 20 minutes incubation", "experimental": "Cells and cell culture. Chinese hamster lung (CHL) fibroblasts stably transfected with the human GIP receptor (Gremlich, S. et al., 1995, Diabetes 44: 1202-1208) were cultured in DMEM tissue culture medium containing 10% (v/v) FBS, 1% (v/v) antibiotics (100 U/ml penicillin, 0.1 mg/ml streptomycin). Clonal pancreatic BRIN-BD11 cells (McClenaghan, N. H. et al., 1996, Diabetes 45: 1132-1140) were cultured using RPMI-1640 culture medium containing 10% (v/v) FBS, 1% (v/v) antibiotics (100 U/ml penicillin, 0.1 mg/ml streptomycin) and 11.1 mmol/l glucose. Cells were maintained at 37° C. in an atmosphere of 5% CO2 and 95% air using an LEEC incubator (Laboratory Technical Engineering, Nottingham, UK).\nInsulin-release studies were carried out using clonal pancreatic BRIN-BD11 cells as described previously (O'Harte, F. P. M. et al., 2002, Diabetologia 45: 1281-1291). Briefly, BRIN-BD11 cells were seeded into 24-well plates at a density of 10^5 cells per well, and allowed to attach overnight at 37° C. Acute tests for insulin release were preceded by 40 minutes pre-incubation at 37° C. in 1.0 ml Krebs Ringer bicarbonate buffer supplemented with 1.1 mmol/l glucose. Test incubations were performed in the presence of 5.6 mmol/l glucose with a range of concentrations (10^−13 to 10^−6 mol/l) of GIP and GIP analogues. After 20 minutes incubation, the buffer was removed from each well and aliquots (200 μl) used for measurement of insulin."}, "[5]": {"tested_on": "ob/ob mice", "experiment": "Acute metabolic and dose-response effects with glucose in 18 h fasted ob/ob mice", "type": "in vivo, mouse", "experimental": "Animals. Obese diabetic (ob/ob) mice derived from the colony maintained at Aston University, UK were used at 12-17 weeks of age. The genetic background and characteristics of the colony used have been outlined in detail elsewhere (Bailey, C. J. et al., 1982, Int. J. Obesity 6:11-21; Gault, V. A. et al., 2003, J. Endocrinol. 176: 133-141). Animals were housed in an air-conditioned room at 22±2° C. with a 12 hours light: 12 hours dark cycle. Drinking water and standard rodent maintenance diet (Trouw Nutrition, Cheshire, UK) were freely available. All test solutions were administered by i.p. injection in a final volume of 5 ml/kg bw. Blood was collected from the cut tip of the tail vein of conscious mice into chilled fluoride/heparin microcentrifuge tubes immediately prior to injection and at the times indicated in the Figures. Plasma was separated using a Beckman microcentrifuge (Beckman Instruments, UK) at 13,000 g for 30 second and stored at −20° C. prior to glucose and insulin determinations. All animal experiments were carried out in accordance with the UK Animals (Scientific Procedures) Act 1986.\nMetabolic and dose-response effects of GIP and N-AcGIP(LysPAL) analogues (at 6.25-25 nmoles/kg bw) following glucose administration (18 mmoles/kg bw) were examined in mice fasted for 18 hours. […] Food intake and body weight were recorded daily. Plasma glucose and insulin concentrations were monitored at 2-6 day intervals. At 14 days, groups of animals were used to evaluate intraperitoneal glucose tolerance (18 mmoles/kg) and insulin sensitivity (50 U/kg). In a separate series, two experimental protocols were employed to examine the possibility of GIP receptor desensitization after 14 days treatment. […] At the end of the 14-day treatment period, pancreatic tissues were excised for measurement of insulin following extraction with 5 ml/g ice-cold acid ethanol (75% ethanol, […], 1.5% HCl). Whole blood was taken for determination of glycated hemoglobin.\nBiochemical analyses. Plasma glucose was assayed by an automated glucose oxidase procedure (Stevens, J. F., 1971, Clin. Chem. Acta 32:199-201) using a Beckman Glucose Analyser II (Beckman, Galway, Ireland). Plasma insulin was determined by dextran-charcoal RIA as described previously (Flatt, P. R. et al., 1981, Diabetologia 20: 573-577). Glycated hemoglobin was determined using cation-exchange columns (Sigma, Poole, Dorset, UK) with measurement of absorbance (415 nm) in wash and eluting buffers using a VersaMax microplate spectrophotometer (Molecular Devices, Wokingham, Berkshire, UK).\nStatistics. Results are expressed as mean±SEM. Data were compared using the unpaired Student's t-test. Where appropriate, data were compared using repeated measures ANOVA or one-way ANOVA, followed by the Student-Newman-Keuls post hoc test. Incremental areas under plasma glucose and insulin curves (AUC) were calculated using a computer-generated program employing the trapezoidal rule (Burington, R. S., 1973, Handbook of Mathematical Tables and Formulae, McGraw-Hill, New York) with baseline subtraction."}}, "data": [{"smiles": "CCCCCCCCCCCCCCCC(=O)NCCCC[C@H](NC(=O)[C@H](CC(=O)O)NC(=O)[C@H](CCSC)NC(=O)[C@H](C)NC(=O)[C@@H](NC(=O)[C@H](CO)NC(=O)[C@H](Cc1ccc(O)cc1)NC(=O)[C@H](CC(=O)O)NC(=O)[C@H](CO)NC(=O)[C@@H](NC(=O)[C@H](Cc1ccccc1)NC(=O)[C@@H](NC(=O)CNC(=O)[C@H](CCC(=O)O)NC(=O)[C@H](C)NC(=O)[C@H](Cc1ccc(O)cc1)NC(C)=O)[C@@H](C)O)[C@@H](C)CC)[C@@H](C)CC)C(=O)N[C@H](C(=O)N[C@@H](Cc1c[nH]cn1)C(=O)N[C@@H](CCC(N)=O)C(=O)N[C@@H](CCC(N)=O)C(=O)N[C@@H](CC(=O)O)C(=O)N[C@@H](Cc1ccccc1)C(=O)N[C@H](C(=O)N[C@@H](CC(N)=O)C(=O)N[C@@H](Cc1c[nH]c2ccccc12)C(=O)N[C@@H](CC(C)C)C(=O)N[C@@H](CC(C)C)C(=O)N[C@@H](C)C(=O)N[C@@H](CCC(N)=O)C(=O)N[C@@H](CCCCN)C(=O)NCC(=O)N[C@@H](CCCCN)C(=O)N[C@@H](CCCCN)C(=O)N[C@@H](CC(N)=O)C(=O)N[C@@H](CC(=O)O)C(=O)N[C@@H](Cc1c[nH]c2ccccc12)C(=O)N[C@@H](CCCCN)C(=O)N[C@@H](Cc1c[nH]cn1)C(=O)N[C@@H](CC(N)=O)C(=O)N[C@H](C(=O)N[C@H](C(=O)N[C@@H](CCC(N)=O)C(=O)O)[C@@H](C)O)[C@@H](C)CC)C(C)C)[C@@H](C)CC", "note": "[N-AcGIP(LysPAL^16)]", "values": [{"measurement": "remaining at 2 h, 2 mmol/l", "setting": "[1]; 2 h", "result": 100, "unit": "%"}, {"measurement": "remaining at 8 h, 2 mmol/l", "setting": "[1]; 8 h", "result": 100, "unit": "%"}, {"measurement": "remaining at 24 h, 2 mmol/l", "setting": "[1]; 24 h", "result": 100, "unit": "%"}, {"measurement": "% Intact peptide remaining after time (hours)", "setting": "[2]; 0 h", "result": 100, "unit": "%"}, {"measurement": "% Intact peptide remaining after time (hours)", "setting": "[2]; 24 h", "result": "remained completely intact"}, {"measurement": "EC50", "setting": "[3]", "result": 12.1, "unit": "nM"}, {"measurement": "insulin secretion compared to control", "setting": "[4]", "result": "significantly stimulated glucose-induced insulin secretion"}, {"measurement": "enhancement of overall glucose-mediated insulin release (AUC) compared to native GIP", "setting": "[5]; 25 nmoles/kg i.p. with glucose", "result": 1.5, "unit": "fold"}, {"measurement": "overall glucose excursion compared to native GIP", "setting": "[5]; 25 nmoles/kg i.p. with glucose", "result": "decreased the overall glucose excursion"}, {"measurement": "overall glucose excursion (glucose AUC) compared to glucose alone", "setting": "[5]; 25 nmoles/kg i.p. with glucose 18 mmoles/kg, 0-60 min", "result": "significantly lowered glucose AUC"}]}]}
